Assay results as given in patent US20230312510A1, “COMPOUNDS AND METHODS FOR TREATING NEURODEGENERATIVE DISEASES” (The McLean Hospital Corporation, priority 2020, published 2023).
In brackets after ≈: the same amount, converted by molar mass. Several values for one entry are separate records, joined by “and”; a condition that tells them apart may be missing. Equal values may be shown once.

Experiments:
Nurr1-LBD [1] = target: T1, Nurr1-LBD (Homo sapiens, UniProt P43354); assay: Radioligand competition binding assay using [3H]-CQ
T1 sequence (P43354 360-595 limits assumed): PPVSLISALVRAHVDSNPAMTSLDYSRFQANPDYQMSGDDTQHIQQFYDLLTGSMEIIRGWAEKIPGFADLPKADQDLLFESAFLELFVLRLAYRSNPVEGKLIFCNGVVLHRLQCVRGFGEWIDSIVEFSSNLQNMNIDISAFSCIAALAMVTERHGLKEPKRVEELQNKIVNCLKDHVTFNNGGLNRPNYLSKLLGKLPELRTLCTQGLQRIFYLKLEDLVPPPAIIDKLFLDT

[2] = system: Nurr1-LBD and full-length Nurr1; assay: Luciferase activity assay (Nurr1 transactivation) in N27-A cells; type: cell-based, murine
MN9D cells [3] = system: MN9D cells
Description: (§2) Cell viability and cytotoxicity were measured by MTT (3-(4,5-dimethylthiazol-2-yl)-2,5-diphenyltetrazolium bromide) reduction assay.
(§3) Cell viability and cytotoxicity were measured by lactate dehydrogenase (LDH) release assay.

[4] = pH 7.4
HeLa cells = assay: Starvation-induced autophagy in HeLa cells (Western blot of LC3B and p62); type: cell-based; settings: EBSS 0-4 hrs, BafA1 10 nM, CQ 20 μM, SPV-94 1 μM
Description: To limit basal autophagy, cells were incubated in fresh growth medium for 1 hr before starvation. Samples were analyzed by Western blot using autophagic flux markers LC3B and p62 (A) and its expression levels were quantified (10B and 10C).

N27-A cells [5] = assay: Protection against MPP+-induced toxicity in N27-A cells (MTT, LDH); settings: 1 mM MPP+
Nurr1-LBD [6] = target: T1, Nurr1-LBD; assay: Luciferase activity assay (p4xNL3-Luc reporter) with Nurr1-LBD in SK-N-BE(2)C cells; type: cell-based; set-up: expressed in transfected cells; host or cells: SK-N-BE(2)C human neuroblastoma cells
BV2 cells = assay: LPS-induced TNFα mRNA expression in BV2 cells (real-time PCR); type: cell-based, mouse; settings: LPS 1 μg/ml, compound 1 μM
From the text: (§1) Besides the role as an activator of DAergic genes, Nurr1 is known as a repressor of inflammatory genes in astrocytes and microglia (See Saijo et al., Cell 2009, 137, 47-59).

MN9D cells [7] = assay: Protection against MPP+-induced toxicity in MN9D cells (MTT reduction, LDH release)
Description: as §2, §3

[8] = system: MPTP-induced PD model mice; settings: mouse, in vivo
Description: (§4) Sub-chronic MPTP regimen (30 mg/kg/day, 5 days) was introduced.

[9] = system: MPTP-induced PD model mice; assay: Sub-chronic MPTP-induced mice model of PD
Description: as §4

full-length Nurr1 = target: T2, full-length Nurr1 (Homo sapiens, UniProt P43354); assay: Luciferase activity assay (p4xNL3-Luc reporter) with full-length Nurr1 in SK-N-BE(2)C cells; type: cell-based
T2 construct: expressed in transfected cells; host or cells: SK-N-BE(2)C human neuroblastoma cells
T2 sequence (P43354 whole entry): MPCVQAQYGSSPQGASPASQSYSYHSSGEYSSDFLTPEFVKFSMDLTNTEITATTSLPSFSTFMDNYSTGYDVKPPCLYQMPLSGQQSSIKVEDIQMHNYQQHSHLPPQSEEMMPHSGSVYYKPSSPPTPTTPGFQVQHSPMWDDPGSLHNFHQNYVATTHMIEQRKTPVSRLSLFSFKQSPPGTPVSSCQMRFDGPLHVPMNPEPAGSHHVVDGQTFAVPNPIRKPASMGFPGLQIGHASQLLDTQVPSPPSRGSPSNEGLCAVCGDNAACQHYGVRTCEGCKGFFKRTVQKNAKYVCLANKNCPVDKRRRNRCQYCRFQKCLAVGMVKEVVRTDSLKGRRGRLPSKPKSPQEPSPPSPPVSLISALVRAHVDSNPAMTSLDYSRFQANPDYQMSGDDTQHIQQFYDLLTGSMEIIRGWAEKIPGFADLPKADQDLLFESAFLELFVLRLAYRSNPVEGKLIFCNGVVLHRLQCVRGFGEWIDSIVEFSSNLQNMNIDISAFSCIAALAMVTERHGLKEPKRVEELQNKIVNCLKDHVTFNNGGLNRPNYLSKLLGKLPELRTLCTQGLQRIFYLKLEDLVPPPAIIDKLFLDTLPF

N27-A cells [10] = assay: Starvation-induced autophagy and Nurr1 expression in N27-A cells with or without MPP+; type: cell-based
Description: LC3B, p62 and Nurr1 expression levels determined by Western blot (D) were quantified.
Next, autophagy regulation was assessed in a dopaminergic cell line N27-A in the absence or presence of MPP^+ (1 mM). […] Furthermore, it was observed that MPP disrupted autophagy showing accumulated LC3B-II and remained p62 at the late-stage, which corresponds to the previous studies (See Lim et al., Autophagy 2011, 7, 51-60; Hung et al., PLoS ONE 2014, 9, e91074; Park et al., J Biol Chem 2016, 291, 3531-3540).
Referring to FIGS. 10D-10G, N27-A cells were treated with vehicle or MPP+ (1 mM) for 24 hrs and then changed with fresh growth medium with or without MPP+ 1 hr before starvation. […] To induce autophagy, N27-A cells were incubated in EBSS for 0-4 hrs, in the absence or presence of MPP+. Samples were analyzed by Western blot using autophagic flux markers LC3B and p62 (D) and its expression levels were quantified (10E and 10F). […] (10G) Nurr1 expression level changes were also analyzed and quantified.

[11] = system: mouse bone marrow-derived primary macrophages (mBMMs); assay: LPS- or poly(I:C)-induced pro-inflammatory gene expression in mBMMs; type: cell-based; settings: CQ 10 μM, SPV-94 1 μM
From the text: as §1

Nurr1 = target: T3, Nurr1 (Homo sapiens, UniProt P43354); assay: Relative luciferase activity versus previously reported compounds in SK-N-BE(2)C cells; type: cell-based; settings: compared with control, AQ, CQ, SM-485, ATH-393, SR-175
T3 construct: expressed in transfected cells; host or cells: SK-N-BE(2)C cells
T3 sequence (P43354 whole entry): as above
From the text: Each bar indicates Mean±SEM from three independent experiments.

[12] = Brain permeability (plasma and brain levels by LC-MS/MS) after i.v. injection; type: in vivo; settings: rats, 5 mg/kg i.v., 5 min and 1 hr
Description: Rats (n=6) were killed at 5 min and 1 hr after i.v. administration, and brain and plasma were collected for blood-brain barrier (BBB) penetration analysis. The concentrations of each compound in plasma (A) and brain (B) were determined by LC-MS/MS (liquid chromatography-tandem mass spectrometry). The brain/plasma ratio (B/P ratio) (C) is calculated at each time point.

[13] = system: mouse embryonic ventral mesencephalic (mVM) primary neurons; assay: Dopaminergic gene expression in mVM primary neurons with or without 6-OHDA; type: cell-based
Description: FIGS. 8A-8D show dopaminergic (DAergic) gene expressions in the absence or presence of 6-OHDA (20 μM) in mouse embryonic ventral mesencephalic (mVM) primary neurons derived from embryonic day 12.5 (E12.5).

[14] = system: Nurr1-LBD and full-length Nurr1; assay: Luciferase activity assay (Nurr1 transactivation) in MN9D cells; type: cell-based, murine
[15] = L-DOPA 50, CQ 40, SPV-94 5 mg/kg/day

CCN1CCN(c2cc(NCCNc3ccnc4cc(Cl)ccc34)nc(N3CCN(CC)CC3)n2)CC1 [SPV-94]
Ki (Nurr1-LBD [1]): 0.0111 µM
IC50 (Nurr1-LBD [1]; 1,000 nM [3H]-CQ, 0.2 μM Nurr1-LBD, estimated, read-out: half maximal inhibitory concentration (IC50), competition with [3H]-CQ for binding to Nurr1-LBD): 0.05 µM
times higher affinity to Nurr1-LBD than CQ, based on IC50s (Nurr1-LBD [1]; versus CQ): 20 times
EC50 [2]: ~0.05 µM
transcriptional activities of Nurr1-LBD and full-length Nurr1 [2]: enhanced transcriptional activities
times lower concentration of maximal efficiency than CQ, protection from MPP+-induced cytotoxicity (MN9D cells [3]): 10 times
solubility [4]: 504.88 µM (≈ 265 µg/mL)
autophagy process (LC3B, p62) (HeLa cells): initiated and also terminated autophagy process resulting in significant p62 degradation
cell viability, MTT assay (N27-A cells [5]): dose-dependently increased cell viability in MTT assay
concentration of maximal efficiency, Nurr1-LBD transcriptional activity (Nurr1-LBD [6]; SK-N-BE(2)C cells): 20 µM
EC50 (Nurr1-LBD [6]; SK-N-BE(2)C cells, read-out: EC50, transcriptional activity of Nurr1-LBD): ~10 µM and 10 µM
fold lower concentration of maximal efficiency than CQ, Nurr1-LBD (Nurr1-LBD [6]; versus CQ): 5 fold
suppression of TNFα expression compared to LPS only (BV2 cells): 20.67%
cell viability, MTT reduction assay (MN9D cells [7]; 500 μM MPP+): dose-dependently increased cell viability
protective effect against MPP+-induced toxicity under Nurr1 overexpression (OE) (MN9D cells [7]; CQ 100 μM, SPV-94 1 μM, vs Mock): potentiated protective effects
dyskinesia in the abnormal involuntary movements (AIMs) test [8]: did not trigger dyskinesia
olfactory discrimination test (olfaction), sub-acute stage [9]: significantly recovered olfaction
body weight recovery [9, 15]: restored it even earlier, after day 6
cylinder test, rearing numbers, sub-chronic treatment [9, 15]: recovered rearing numbers in the cylinder test
pole test, time to traverse, sub-chronic treatment [9, 15]: reduced time to traverse on a pole
rotarod latency to fall, sub-chronic treatment [9, 15]: significantly improved motor deficits on the rotarod latency to fall
Nurr1-immunoreactive cells ([9]; SNpc): significantly retained Nurr1-immunoreactive cells
GFAP immunoreactivity, activated astrocytes ([9]; STR): reduced number of activated astrocytes
Iba-1+ microglia numbers ([9]; STR and SNpc): significantly reduced numbers of Iba-1+ microglia
TH+ DAergic neurons (counting and densitometry) ([9]; STR, SNpc and OB): significantly restored DAergic neurons
olfactory discrimination test (olfaction), chronic treatment ([9]; day 14): significantly recovered olfaction
rotarod latency to fall, chronic treatment ([9]; day 15): improved latency to fall on the rotarod on day 15
concentration of maximal efficiency, full-length Nurr1 transcriptional activity (full-length Nurr1; SK-N-BE(2)C cells): 20 µM
EC50 (full-length Nurr1; SK-N-BE(2)C cells, read-out: EC50, transcriptional activity of full-length Nurr1): ~10 µM and 10 µM
fold lower concentration of maximal efficiency than CQ, full-length Nurr1 (full-length Nurr1; versus CQ): 5 fold
basal Nurr1 expression level compared to VEH (N27-A cells [10]; CQ 20 μM, SPV-94 1 μM): significantly higher
MPP+-induced autophagy dysregulation (p62 degradation) (N27-A cells [10]; MPP+ 1 mM): seemed to protect N27-A cells from MPP+-induced autophagy dysregulation leading to successful p62 degradation
Nurr1 expression against MPP+ (N27-A cells [10]; MPP+ 1 mM, SPV-94 1 μM): maintained Nurr1 expression against MPP+
autophagy termination (LC3B, p62) (N27-A cells [10]; starvation 0-4 hrs, BafA1 10 nM, CQ 20 μM, SPV-94 1 μM): autophagy was successfully terminated
LPS- or poly(I:C)-induced pro-inflammatory gene expressions (TNFα, iNOS, IL-1β, IL-6) [11]: dramatically suppressed all four pro-inflammatory gene expressions
relative luciferase activity (transactivity) among selected candidates (Nurr1): markedly highest transactivity among the selected candidates
penetration into the brain (brain and plasma concentration, B/P ratio) [12]: penetrated into the brain slower than CQ and consistently maintained its level
DAergic gene expressions downregulated by 6-OHDA toxicity ([13]; 6-OHDA 20 μM, CQ 20 μM, SPV-94 0.5 μM): significant recovery of downregulated DAergic gene expressions
mRNA expression levels of DAergic genes (TH, DAT, AADC, VMAT2, c-Ret, Pitx3) ([13]; CQ 20 μM, SPV-94 0.5 μM, vs vehicle): significantly upregulated mRNA expression levels of DAergic genes
effects on DAergic gene expression in Nurr1 knockdown condition ([13]; Nurr1 KD): disappeared
EC50 [14]: ~0.05 µM
transcriptional activities of Nurr1-LBD and full-length Nurr1 [14]: enhanced transcriptional activities
